Measurements as given in patent US7700765B2, “DNA minor groove binding compounds” (University of Strathclyde, priority 2001, dated 2010).

What was measured:
[1] = test system: double-stranded DNA decamer CGACTAGTCG (SEQ ID NO:3); test: Capillary electrophoresis ligand-DNA binding study; conditions: drug to DNA ratio up to 4:1
Text: (§1) Typically, ligand binding results in a change in migration time of the DNA and sometimes a change in peak shape.
(§2) The following are shown in FIGS. 1-6: • (a) the experimental conditions, including the DNA sequence(s); • (b) the result of sequential addition of ligand; and • (c) the structure of the ligand being investigated. Key to FIGS. 1 to 6: • r0=electropherogram in the absence of drug • rX=(where X is 0.5, 1, 2, 3 or 4) electropherogram in the presence of drug, where the drug:DNA ratio (in terms of concentration) is X:1
(§3) This ratio corresponds to the binding ratio.

[2] = test system: mixture of double-stranded DNA oligonucleotides AAATTATATTAT (SEQ ID NO:1) and GGACTAGTCG (SEQ ID NO:4); test: Capillary electrophoresis competitive binding study; conditions: AAATTATATTAT dodecamer versus GGACTAGTCG decamer
Text: (§4) Capillary electrophoresis was used to study of ligand-DNA binding (see: (i) Hamdan, I. I.; Skellern, G. G.; and Waigh, R. D. “Separation of pd(GC)12 from pd(AT)12 by free solution capillary electrophoresis”, J. Cromatogr. A. 806, 165-168 (1998); (ii) Hamdan, I. I.; Skellern, G. G.; and Waigh, R. D. “Use of capillary electrophoresis in the study of ligand-DNA interactions”, Nucleic Acids Research 26, 3053-3058 (1998); (iii) Hamdan, I. I.; Skellern, G. G.; and Waigh, R. D. “Ligand binding to oligonucleotides” Methods in Molecular Biology, Vol. 163, “Capillary Electrophoresis of Nucleic acids”, Vol 2, pages 379-391, K. R. Mitchelson and J. Cheng Eds., Humana Press, New Jersey, (2000)).
as §1, §2
This ratio corresponds to the binding ratio. […]

[3] = test system: double-stranded DNA oligonucleotide CCACTAGTGG (SEQ ID NO:5); test: Capillary electrophoresis ligand-DNA binding study; conditions: with CCACTAGTGG (SEQ ID NO:5)
Text: as §4, §1, §2, §3

[4] = test system: MS1 sequence (radio-labelled DNA, SEQ ID NO:6); test: DNA footprinting (DNase I); assay type: binding; conditions: concentration of 0.03 μM
Method: DNA footprinting is a well-established technique in which a section of radio-labelled DNA (SEQ ID NO:6) is incubated with a chemical or biological cleaving agent, in the presence and absence of a putative binding ligand. Regions of ligand binding will show as blanks in the ‘ladder’. Knowing the DNA sequence, the binding sites can then be deduced, from the location of these blanks. The sequence shown in FIGS. 7 and 8 is MS1, which contains all possible four-base-pair binding sites. The procedure used in the footprinting experiments was analogous to that described in J. Med. Chem. 43, 3257 (2000), the disclosures of which document are hereby incorporated by reference. In an analogous manner to the procedure described in J. Med. Chem. 43, 3257 (2000), the MS1 sequence was labelled at the 3′-end with [α-^32P]dATP using reverse transcriptase. The agent used to cleave the radio-labelled DNA was DNase I. Bases that fall within the “footprint” of a compound are indicated by XX . . . XX underneath the sequence. The binding domain that has been confirmed by capillary electrophoresis is indicated by XX. XX.

[5] = test system: NFκB protein-DNA complexes; test: NFκB DNA-binding assay (gel shift) with macrophage nuclear extracts; assay type: biochemical, Murine; conditions: 1 μL of a 1 mM solution, final volume 10 μL; nuclear protein from macrophages exposed to LPS
Method: Murine macrophages (obtained and cultured as described in Cell. Signal. 11(7), 491 (1999), hereinafter referred to as “Reference 1”, the disclosures of which document are hereby incorporated by reference) were exposed to vehicle (see Reference 1) or 1 μg/mL lipopolysaccharide (LPS; the active component of gram-negative endotoxin and a strong activator of the Nuclear Factor kappa B (NFκB) pathway; the particular LPS being obtained from Salmonella minnesota) for 1 hour and nuclear extracts prepared by standard procedures (see Brit. J. Pharmacol. 134, 393 (2001), hereinafter referred to as “Reference 2”, the disclosures of which document are hereby incorporated by reference).
Aliquots of compounds (1 μL of a 1 mM solution) were incubated with 1 μL (0.035 pmol) of a ^32P-labelled 20 bp double-stranded DNA oligonucleotide (representing the consensus binding sequence for NFκB proteins (see Reference 2 and Brit. J. Pharmacol. 134, 1629-1638 (2001), the disclosures of which latter document are hereby incorporated by reference)) for 30 min at room temperature. […] The formation of NFκB protein-DNA complexes and potential inhibition of complex formation in the presence of the above compounds was detected by autoradiography. […]

With “N-[3-(Dimethylamino)propyl]-2-({[4-({[4-(formylamino)-1-methyl-1H-pyrrol-2-yl]carbonyl}amino)-1-methyl-1H-pyrrol-2-yl]carbonyl}amino)-5-isopropyl-1,3-thiazole-4-carboxamide [Example 3]” the “affinity for the sequence” value [1] was “strong affinity”, the “relative affinity in competitive binding” value [2] was “greater affinity for the decamer ACTA sequence” and the binding result [3] was “identical with that achieved with the sequence in FIG. 3”. The “footprint on MS1 sequence” value [4] was “binding to only one site on the MS1 sequence” and the “effect on LPS-stimulated NFκB-DNA binding activity” value [5] was “appeared to inhibit”.
